Test results reported in patent US9085641B2, “Peptides regulating the surface expression of the T cell receptor” (Max-Delbruck-Centrum Fur Molekulare Medizin, priority 2006, dated 2015).
Entries after “also recorded” stand apart in the source; their conditions may differ.

How the values were obtained:
TCR [1] = assay: Functional CD3 kappa assay: TCR expression on CD4+ PBMCs from healthy donors (antibody staining); format: cell-based, human; details: for TCR-expression: CD4+ cells from three healthy donors, FIG. 2A
Description: (§1) Heparinized full blood was layered on room-temperature LSM (density: 1.077 g/ml, Cambrex, Verviers, Belgium). After centrifugation at 400 g at 20° C. for 30 minutes, the interphase cells were isolated. The cells were washed twice with 50 ml PBS containing 2 mM EDTA and centrifuged at 300 g for 10 minutes at 20° C. The cell-pellet was resuspended in RPMI supplemented with 10% autologous serum, Pen/Strep, Gentamycin, Pyruvate, Hepes-buffer and L-Glutamine (Cambrex).
(§2) CD3 kappa or the control peptide was solubilized in RPMI with 1% human serum albumin (HSA, Calbiochem, Schwalbach, Germany) and 100 μM β-mercaptoethanol (β-ME, Invitrogene) at 10 mg/ml. PBMCs were incubated at 10^6 cells/ml with either peptide in the same medium and stained after on wash step with PBS with various antibodies (BD).
We synthesized the resulting 42 amino acids polypeptide without the signal sequence resulting in the CD3 kappa peptide having the amino acid sequence according to SEQ ID NO:4. All following experiments were performed with freshly isolated PBMCs from healthy donors in the presence of the 42-mer CD3-kappa or of a control peptide (consisting of the same amino acid composition and length but with a random sequence). […] The control peptide had no effect on TCR expression. Concentrations up to 1 mg/ml CD3-kappa induced a maximal response after 24 h resulting in a six fold upregulation of the TCR.

CD4 = assay: Functional CD3 kappa assay: CD4 expression on PBMCs from healthy donors; format: cell-based, human; details: over 6 d, FIG. 2B
Description: as §1, §2
The TCR-expression level was stabilized after treatment with CD3-kappa in a majority of the CD4 cells, while untreated cells quickly converted to a low TCR expression state. Only at day 6 did the CD3-kappa treated cells show a decline in TCR expression.

PBMCs [2] = assay: Functional CD3 kappa assay: cell surface markers and cytokine/chemokine receptors on PBMCs; format: cell-based, human; details: after six days; for expression of CD25 / expression of CD116: FIGS. 4a/4b
Description: as §1, §2

PBMCs [3] = assay: Protein microarrays (human cytokine micro arrays 6.1 and 7.1) of secreted factors in culture supernatant; format: cell-based; details: for amount of EGF in the supernatant / amount of Eotaxin-2 in the supernatant / amount of GRO in the supernatant / amount of I-309 in the supernatant / amount of IFNγ in the supernatant / amount of IL-1ra in the supernatant / amount of IL-1α in the supernatant / amount of IL-1β in the supernatant / amount of IL-3 in the supernatant / amount of IL-6 in the supernatant / amount of IL-8 in the supernatant / amount of MCP-4 in the supernatant / amount of NAP-2 in the supernatant / amount of PARC in the supernatant / amount of RANTES in the supernatant / amount of SDF-1 in the supernatant / amount of TARC in the supernatant / amount of TGFβ3 in the supernatant / amount of soluble IL-6 Receptor in the supernatant / amount of soluble TNF-Receptor II in the supernatant: FIGS. 3b and 3c
Description: All reagents were from Raybiotech (Hilden, Germany). 2 ml supernatant from cultures with 5×10^6 cells/ml was mixed with blocking buffer (BB) and pipetted to blocked human cytokine micro arrays 6.1 and 7.1. After overnight incubation, the membranes were washed three times with wash buffer I and two times with wash buffer II. Anti-cytokine antibodies were added in 2 ml BB. After incubation and wash as described above, 2 ml streptavidin-HRP was added. Again after incubation and wash as described above, detection solution was added and exposure for 18 h to X-ray films were performed.

TCR [4] = assay: TCR expression in PBMCs from patients recovering from T-cell toxic chemotherapy (fludarabine); format: cell-based, human
Description: as §2
CD3 zeta is synthesized at about 10% of the rate as the other CD3-complex proteins being the limiting component for a correct assembly of the CD3/TCR complex. A maximal upregulation of CD3 zeta can therefore result in a 10-fold upregulation of the TCR. The higher capability of CD3 kappa to upregulate the surface TCR expression might be explained with a reduced need of some of the CD3-complex components.

[5] = peripheral blood mononuclear cells, in vitro

SQVSPFKIPIEELEDRVFVNCNTSIYRASSLSN CRHTSSVEE (SQVSPFKIPIEELEDRVFVNCNTSIYRASSLSNCRHTSSVEE) [CD3 kappa, 42 amino acid long synthesized peptide, splice variant of CD3 delta without the signal peptide]
concentration giving detectable TCR-upregulation (TCR [1]; CD4+ cells from healthy donors, 24 h): ≥ 0.1 mg/mL | TCR-expression (TCR [1]; after 24 h): concentration dependent increase | TCR expression over time (TCR [1]; PBMCs / CD4 cells, over the next 6 days, FIG. 2B): remarkable and sustained increase; also recorded: stabilized | upregulation of the TCR (maximal response) (TCR [1]; PBMCs from healthy donors, up to 1 mg/ml, after 24 h): six | influence of stimulation with PMA and ionomycin on the TCR increase (TCR [1]; cells stimulated with PMA and ionomycin): did not affect this finding | TCR expression at day 6 (TCR [1]; day 6): decline | CD4 expression (CD4): up-regulation | expression of CD2 (PBMCs [2]; FIG. 3a): up-regulation | expression of CD58 (PBMCs [2]; FIG. 3a): down regulated | expression of CD127 (PBMCs [2]; FIG. 3a): up-regulation | expression of CD2 (PBMCs [2]; FIG. 3a, listed as CD3-kappa): increase | expression of CD127 (PBMCs [2]; FIG. 3a, listed as CD3-kappa): increase | expression of CD38 (PBMCs [2]; FIG. 4a): not changed | expression of CD44 (PBMCs [2]; FIG. 4a): not changed | expression of CD45RA (PBMCs [2]; FIG. 4a): not changed | expression of CD45RO (PBMCs [2]; FIG. 4a): not changed | expression of CD62L (PBMCs [2]; FIG. 4a): not changed | expression of CD95 (PBMCs [2]; FIG. 4a): not changed | expression of HLA-ABC (PBMCs [2]; FIG. 4a): not changed | expression of HLA-DR, DP, DQ (PBMCs [2]; FIG. 4a): not changed | expression of LAIR (PBMCs [2]; FIG. 4a): not changed | non-T-cell markers (PBMCs [2]; FIG. 4a): not affected | expression of CCR3 (PBMCs [2]; FIG. 4b): up-regulation | expression of CCR9 (PBMCs [2]; FIG. 4b): up-regulation | expression of CXCR1 (PBMCs [2]; FIG. 4b): up-regulation | expression of CXCR3 (PBMCs [2]; FIG. 4b): slight upregulation | expression of CXCR4 (PBMCs [2]; FIG. 4b): slight upregulation | expression of CCR3 (PBMCs [2]; FIG. 4b, listed as CD3-kappa): increase | expression of CCR9 (PBMCs [2]; FIG. 4b, listed as CD3-kappa): increase | expression of CXCR1 (PBMCs [2]; FIG. 4b, listed as CD3-kappa): increase | expression of CD25 (PBMCs [2]): up-regulation | expression of CD116 (PBMCs [2]): up-regulation | expression of CD25 (PBMCs [2]; listed as CD3-kappa): increase | expression of CD116 (PBMCs [2]; listed as CD3-kappa): increase | amount of EGF in the supernatant (PBMCs [3]): increased release | amount of Eotaxin-2 in the supernatant (PBMCs [3]): increased release | amount of GRO in the supernatant (PBMCs [3]): decreased release | amount of I-309 in the supernatant (PBMCs [3]): increased release | amount of IFNγ in the supernatant (PBMCs [3]): increased release | amount of IL-1ra in the supernatant (PBMCs [3]): decreased release | amount of IL-1α in the supernatant (PBMCs [3]): increased release | amount of IL-1β in the supernatant (PBMCs [3]): increased release | amount of IL-3 in the supernatant (PBMCs [3]): increased release | amount of IL-6 in the supernatant (PBMCs [3]): increased release | amount of IL-8 in the supernatant (PBMCs [3]): decreased release | amount of MCP-4 in the supernatant (PBMCs [3]): decreased release | amount of NAP-2 in the supernatant (PBMCs [3]): increased release | amount of PARC in the supernatant (PBMCs [3]): increased release | amount of RANTES in the supernatant (PBMCs [3]): decreased release | amount of SDF-1 in the supernatant (PBMCs [3]): decreased release | amount of TARC in the supernatant (PBMCs [3]): decreased release | amount of TGFβ3 in the supernatant (PBMCs [3]): increased release | amount of soluble IL-6 Receptor in the supernatant (PBMCs [3]): decreased release | amount of soluble TNF-Receptor II in the supernatant (PBMCs [3]): decreased release | amount of EGF in the supernatant (PBMCs [3]; listed as CD3-kappa): increased | amount of Eotaxin-2 in the supernatant (PBMCs [3]; listed as CD3-kappa): increased | amount of GRO in the supernatant (PBMCs [3]; listed as CD3-kappa): decreased | amount of I-309 in the supernatant (PBMCs [3]; listed as CD3-kappa): increased | amount of IFNγ in the supernatant (PBMCs [3]; listed as CD3-kappa): increased | amount of IL-1ra in the supernatant (PBMCs [3]; listed as CD3-kappa): decreased | amount of IL-1α in the supernatant (PBMCs [3]; listed as CD3-kappa): increased | amount of IL-1β in the supernatant (PBMCs [3]; listed as CD3-kappa): increased | amount of IL-3 in the supernatant (PBMCs [3]; listed as CD3-kappa): increased | amount of IL-6 in the supernatant (PBMCs [3]; listed as CD3-kappa): increased | amount of IL-8 in the supernatant (PBMCs [3]; listed as CD3-kappa): decreased | amount of MCP-4 in the supernatant (PBMCs [3]; listed as CD3-kappa): decreased | amount of NAP-2 in the supernatant (PBMCs [3]; listed as CD3-kappa): increased | amount of PARC in the supernatant (PBMCs [3]; listed as CD3-kappa): increased | amount of RANTES in the supernatant (PBMCs [3]; listed as CD3-kappa): decreased | amount of SDF-1 in the supernatant (PBMCs [3]; listed as CD3-kappa): decreased | amount of TARC in the supernatant (PBMCs [3]; listed as CD3-kappa): decreased | amount of TGFβ3 in the supernatant (PBMCs [3]; listed as CD3-kappa): increased | amount of soluble IL-6 Receptor in the supernatant (PBMCs [3]; listed as CD3-kappa): decreased | amount of soluble TNF-Receptor II in the supernatant (PBMCs [3]; listed as CD3-kappa): decreased | duration of the changes in secretion (PBMCs [3]; [5]): up to eight | time after addition at which the changes in secretion occur (PBMCs [3]; [5]): about 24 h | decreased TCR expression of patients after treatment (TCR [4]; PBMCs / T lymphocytes from patients with decreased TCR expression, compared with healthy individuals): restored to normal levels; also recorded: increased in a statistically significant manner | TCR upregulation (TCR [4]; PBMCs from patients recovering from fludarabine treatment, after 48 h treatment, FIG. 5): 25 fold

SESVNISTNVNRFHTFPYCEIAEVSCRSKVRIELDLQSPESS (MISC_FEATURE: synthetic) [control peptide, reference compound]
TCR-expression (TCR [1]; after 24 h): no effect
